This is an account of results in PubChem BioAssay AID1117319 (Southern Research Institute, 2015).

Records with an inconclusive call do not appear.

This test has as its target Virion infectivity factor (Human immunodeficiency virus type 1 group M subtype B (isolate BH10)) + Virion infectivity factor (Human immunodeficiency virus type 1 group M subtype B (isolate BRU/LAI)) + Virion infectivity factor (Human immunodeficiency virus type 1 group M subtype B (isolate PCV12)) + Virion infectivity factor (Human immunodeficiency virus type 1 group M subtype B (isolate HXB2)) + DNA dC->dU-editing enzyme APOBEC-3G (Homo sapiens) (UniProt P69720+P69721+P69722+P69723+Q9HC16). Nature of the test: inhibitors of Vif binding to APOBEC3G peptide, primary screen, biochemical, TR-FRET, GST-Vif 1-94, biotin-A3G peptide, dose response retest (AID 1117319).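 Note: Vif residues 1-94 fused to GST binding biotinylated APOBEC3G peptide 110-148.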
Usually IC50 stands for the point on the concentration scale where inhibition reaches its midpoint. On to `COc1cc(CNCCc2ccc(F)cc2)ccc1OCc1ccc(Cl)nc1`, for which the IC50 was 3.18 µM.

In the case of `C/C(=N\Nc1ccc(Cl)c(C(=O)O)c1)c1ccc[nH]1`, the IC50 is 8.87 µM.

As for `COc1ccc(N2CCN(C(=O)c3c(-c4ccccc4)noc3C)CC2)cc1`, the IC50 is 31.1 µM.

Consider `CN(C)c1ccc(NC(=O)Cn2cc3c(n2)CCCC3)cc1`, for which the IC50 was 6.08 µM.

As to `Nc1cc(C(=O)O)ccc1N1CCCCC1`, the IC50 was 15 µM.

In the case of `NS(=O)(=O)c1ccc2c(c1)C1C=CCC1C(C1CC=CCC1)N2` (stereo not drawn), the IC50 is 3.42 µM.

With `Nc1ncnc2oc(-c3ccco3)c(-c3ccco3)c12`, the IC50 was 0.55 µM.

In the case of `CC(C)c1ccc(S(=O)(=O)/N=C2/C=CC(=O)c3ccccc32)cc1`, the IC50 is 5.36 µM.

On to `CN(C)c1ccc(N=C/C=C2/N(C)c3ccccc3C2(C)C)cc1`, for which the IC50 is 2.19 µM.

Turning to `COc1cc(C(=O)NCc2nnc(SCC(=O)Nc3nc4ccc(C)cc4s3)o2)cc(OC)c1OC`, the IC50 is 45.3 µM.

With `O=C1c2ccccc2C(=O)N1/N=C/c1ccc(O)c(O)c1O`, the half-maximal inhibitory concentration (IC50) was 4.54 µM.

On to `O=S(=O)(c1ccc(NC(=S)N/N=C/c2ccc(O)c(O)c2)cc1)N1CCOCC1`, for which the IC50 was 7.53 µM.

For the compound `Cc1ccc(C(=O)N/N=C\c2cc(Br)c(Br)o2)cn1`, the IC50 is 6.24 µM.

`O=C(O)Cn1cc(/C=C2\C(=O)NC(=O)N(Cc3ccco3)C2=O)c2ccccc21`: the IC50 was 14.7 µM.

With `CC(C)N1C(=O)CC(Nc2ccc(N3CCOCC3)cc2)C1=O` (stereo not drawn), the IC50 is 2.9 µM.

Turning to `CCNC(=O)COC(=O)c1cc(-c2ccco2)nc2ccccc12`, the IC50 is 3.93 µM.

For the compound `O=C1NC(=O)N(c2ccccc2)C(=O)/C1=C\c1ccc([N+](=O)[O-])s1`, the IC50 was 13.4 µM.

Consider `COc1cc(CNc2ccc(O)cc2)cc(Br)c1OCc1ccccc1`, for which the IC50 was 3.04 µM.

On to `O=[N+]([O-])c1cc2ccccc2c(O)c1O`, for which the IC50 is 22.2 µM.

Take `CCOC(=O)C1=C(N)n2c(s/c(=C/c3ccco3)c2=O)=C(C(=O)OC)C1c1ccco1` (stereo not drawn): the IC50 was 2.17 µM.

As for `CNc1ccc(Br)cc(C(=O)/C=C/c2cccc(OC)c2OC)c1=O`, the concentration for half-maximal inhibition (IC50) was 4.1 µM.

Turning to `N#C/C(=C\c1ccc([N+](=O)[O-])o1)C(=O)Nc1ccc(F)cc1`, the IC50 is 7.59 µM.

Take `CN(C)c1ccc(Cc2cc3c(O)ccc(O)c3cc(Cc3ccc(N(C)C)cc3)c2=O)cc1`: the IC50 was 0.87 µM.

As for `O=C(Nc1ccccc1F)c1coc(=O)c(Br)c1`, the concentration for half-maximal inhibition (IC50) was 7.06 µM.

For the compound `O=C1C2C3C=CC(C3)C2C(=O)N1CNc1ccc(O)cc1` (stereo not drawn), the IC50 was 2.78 µM.

As to `Cc1onc(-c2c(F)cccc2Cl)c1C(=O)Nc1nnc(C2CC2)s1`, the IC50 was 10.7 µM.

With `O=C1CC(=O)N(Cc2ccco2)C(=S)N1`, the IC50 was 2.21 µM.

Take `Cc1cc(/C=C2\C(=O)NC(=O)N(c3cccc(F)c3)C2=O)c(C)n1-c1cc(C(=O)O)cc(C(=O)O)c1`: the half-maximal inhibitory concentration (IC50) is 10.2 µM.

Turning to `CCN(CC)c1ccc(C2NC(=O)NC(C)=C2C(=O)Nc2ccccc2)cc1` (stereo not drawn), the IC50 was 84.4 µM.

Regarding `CCN(CC)S(=O)(=O)c1ccc(/C=C/C(=O)Nc2ccc(N3CCOCC3)cc2)cc1`, the IC50 is 55.7 µM.

Turning to `Brc1c(CSc2nnc(-c3ccco3)o2)nc2ccccn12`, the IC50 was 30.6 µM.

For `CC(C)(CS(=O)(=O)[O-])NC(=O)CC[N+](C)(C)CCO`, the IC50 is 1.5 µM.

As for `O=C(c1ccc2nc(-c3ccco3)c(-c3ccco3)nc2c1)N1CCN(c2ncccn2)CC1`, the IC50 is 1.03 µM.

`COc1ccccc1N1C(=O)NC(=O)/C(=C/c2ccc([N+](=O)[O-])s2)C1=O`: the IC50 was 6.9 µM.

For `CCN1C(=O)/C(=C\c2ccc([N+](=O)[O-])s2)C(=O)NC1=S`, the IC50 is 1.53 µM.

`COC(=O)CCCC(=O)Nc1c(F)c(F)c(F)c(F)c1F`: the IC50 was 24.3 µM.

On to `O=C(COC(=O)c1cc(-c2ccco2)nc2ccccc12)NCc1ccc2c(c1)OCO2`, for which the IC50 was 12.5 µM.

Take `CS(=O)(=O)c1ccc(C(=O)Nc2nc(-c3ccco3)c(-c3ccco3)s2)cc1`: the concentration for half-maximal inhibition (IC50) is 22.1 µM.

Turning to `Oc1ccc(N=Cc2ccc(O)c(O)c2)cc1`, the half-inhibitory concentration (IC50) is 0.99 µM.

For `Cc1ccc(Cl)cc1N1CCN(C(=O)COc2ccc3c(c2)CCC3)CC1`, the IC50 was 45.4 µM.

Take `CCCc1cc(=O)oc2cc(C)c(CN3CCCC3)c(O)c12`: the IC50 is 3.46 µM.

As for `O=[N+]([O-])c1cc2oc3c(c2c(C=NCc2ccncc2)c1O)CCCC3`, the 50% inhibitory concentration (IC50) is 4.52 µM.

Turning to `CNc1ccccc(-c2ccc3cc4c(cc3n2)OCO4)c1=O`, the IC50 was 16.5 µM.

`O=C(NN1C(=O)/C(=C/C=C/c2ccco2)SC1=S)c1ccccc1O`: the IC50 is 1.93 µM.

On to `N#C/C=C\Oc1ccc(Cl)cc1N`, for which the IC50 is 50.3 µM.

Consider `CN=c1scc(-c2cccs2)n1/N=C/c1ccc(O)c(O)c1O`, for which the IC50 is 1.95 µM.

For the compound `CCOC(=O)Cc1cc(=O)n2[nH]c(C)cc2n1`, the IC50 was 75.3 µM.

Turning to `Cc1cc(S(=O)(=O)N(Cc2ccccn2)Cc2ccco2)ccc1-n1cnnn1`, the IC50 is 83.6 µM.

Take `CC1(C)CCCN(C(=O)c2coc(=O)c(Br)c2)C1`: the IC50 is 3.54 µM.

`O=C1C=C(Nc2cccc3cccnc23)c2ccccc2C1=O`: the IC50 is 22.8 µM.

Regarding `CCN(CC(=O)Nc1c(C(=O)OC)[nH]c2ccccc12)c1ccc2c(c1)OCO2`, the IC50 was 5.84 µM.

For the compound `C=CCn1c(SCC(=O)NCCCC)nc2scc(-c3ccco3)c2c1=O`, the IC50 is 20.4 µM.

`COc1ccc(O)c(N)c1`: the IC50 is 0.93 µM.

On to `C=CC(=O)N1C/C(=C/c2ccc(F)cc2)C(=O)/C(=C\c2ccc(F)cc2)C1`, for which the IC50 is 7.41 µM.

Take `O=S(=O)(O)c1cc(O)c(N=Nc2ccc(O)cc2O)c2ccccc12`: the IC50 is 5.25 µM.

As for `CC1=C(C#N)C(=O)N(C2CCS(=O)(=O)C2)C(=O)/C1=C\c1ccco1` (stereo not drawn), the IC50 was 0.62 µM.

In the case of `O=C(O)c1ccc(S(=O)(=O)c2ccc([N+](=O)[O-])cc2[N+](=O)[O-])cc1`, the IC50 is 53.3 µM.

Consider `CCOc1ccc(N(CC(=O)NC(C)(C)C)S(=O)(=O)c2c(C)noc2C)cc1`, for which the IC50 is 5.1 µM.

As to `CC(C)N1C(=O)/C(=C/C=C/c2ccco2)C(=O)N(Cc2ccco2)C1=O`, the IC50 is 2.19 µM.

For the compound `CCC(=O)OCCNc1cc(Sc2nc3ccccc3[nH]2)c2nonc2c1[N+](=O)[O-]`, the IC50 is 9.48 µM.

As to `CC(C)CC(=O)Nc1nnc(-c2ccco2)s1`, the IC50 is 68.1 µM.

On to `O=C(O)C1Nc2c(O)cccc2C2C=CCC12` (stereo not drawn), for which the IC50 is 0.25 µM.

Consider `O=C1C(Cl)=C(N2CCOCC2)C(=O)N1c1ccccc1`, for which the IC50 was 2.18 µM.

For the compound `COc1ccc(NC(=O)/C(C#N)=C/c2ccc(Br)o2)cc1`, the IC50 was 14.7 µM.

As for `O=c1oc(/C=C/c2ccco2)nc2sc3c(c12)CCC3`, the IC50 was 15.5 µM.

As to `CCN(CC)c1ccc(N=Cc2c(O)n(CCc3ccc(OC)c(OC)c3)c(=O)[nH]c2=O)cc1`, the IC50 was 44.1 µM.

With `CCCC(=O)N(CCc1ccc(OC)cc1)Cc1nc2ccccc2c(=O)[nH]1`, the IC50 is 14.4 µM.

On to `Cn1cnnc1SCC(=O)Nc1ncc([N+](=O)[O-])s1`, for which the IC50 was 36.1 µM.

`O=C(/C=C/c1ccco1)c1cccnc1`: the IC50 is 14.1 µM.

Regarding `Cc1cc(O)c(Oc2cc(C)cc(O)c2O)c(O)c1`, the half-maximal inhibitory concentration (IC50) is 13.8 µM.

Regarding `Cc1cc(C)cc(NC(=O)CSc2nc3c(c(=O)n2C)SC(C)C3)c1` (stereo not drawn), the IC50 is 21.8 µM.

With `CCN(C(=O)c1coc(=O)c(Br)c1)c1ccc2c(c1)OCO2`, the 50% inhibitory concentration (IC50) was 1.06 µM.

For `CC(=O)c1ccc(NC(=O)c2ccc3nc(-c4ccco4)c(-c4ccco4)nc3c2)cc1`, the IC50 was 1.38 µM.

As for `C=CCn1c(C)cc(-c2csc(N)n2)c1C`, the IC50 was 1.23 µM.

As for `CCOc1cccc(=O)c2c(C)n(C)c(C)c12`, the IC50 is 11.6 µM.

Regarding `O=c1c2cc(N3CCOCC3)ccc2[nH]c(=S)n1Cc1ccco1`, the IC50 is 7.24 µM.

Take `CN(CC(=O)Nc1cccc(F)c1)C(=O)c1cc(-c2ccco2)nc2ccccc12`: the IC50 is 4.8 µM.

In the case of `CC(=O)N1CCN(c2ccc(NCc3ccc4c(c3)OCO4)cc2)CC1`, the 50% inhibitory concentration (IC50) was 3.78 µM.

As to `CCOC(=O)N1CCN(C(=O)c2ccc3c(SCC(=O)O)c4c(nc3c2)CCC4)CC1`, the IC50 was 1.9 µM.

With `CCOC(=O)N1CC=C2C(C#N)=C(N)C(C#N)(C#N)[C@H](c3cccs3)[C@H]2C1`, the IC50 was 4.68 µM.

For the compound `O=C(CC1C(=O)NCCN1Cc1ccc(F)cc1)NCCN1CCCc2ccccc21` (stereo not drawn), the half-maximal inhibitory concentration (IC50) is 97.4 µM.

With `COC(=O)C1=C(C)NC(=O)/C1=C\c1ccco1`, the IC50 is 6.12 µM.

As for `CN1C(=O)/C(=C/C=C/c2ccco2)C(=O)NC1=S`, the IC50 was 13.4 µM.

Turning to `CCC(c1ccc(O)c(O)c1)C(CC)c1ccc(O)c(O)c1` (stereo not drawn), the IC50 is 6.46 µM.

Consider `O=C(N/N=C/C=C\c1ccco1)c1cccnc1`, for which the IC50 is 4.09 µM.

For the compound `Nc1ccc(N(CCO)CCO)cc1`, the IC50 is 2.17 µM.

As for `CNC(=O)[C@@H]1C[C@H]1[C@@H](NC(=O)OCc1ccccc1)c1ccccc1`, the IC50 is 16.6 µM.

In the case of `Cc1cc2ccccc2n1CCNC(=O)C1CCCCC1`, the IC50 is 37.2 µM.

For the compound `O=C1/C(=C/C=C/c2ccco2)SC(=S)N1c1ccc(O)cc1`, the IC50 was 2.57 µM.

Turning to `Cn1cccc1/C=C1/C(=O)NC(=O)N(Cc2ccc(F)cc2)C1=O`, the IC50 was 8.76 µM.

Take `COc1ccc(CN2C(=O)NC(=O)/C(=C/c3ccc([N+](=O)[O-])o3)C2=O)cc1`: the IC50 is 4.49 µM.

Take `O=C(CSc1nc(-c2ccco2)cc(C(F)(F)F)n1)N1CCc2ccccc2C1`: the concentration for half-maximal inhibition (IC50) was 22.8 µM.

`Cc1ccc(N/N=C/c2c(C)c(C#N)c(=O)n(C)c2O)cc1C`: the half-maximal inhibitory concentration (IC50) is 91.3 µM.

Consider `O=C1NC(=Nc2ccc(O)cc2)S/C1=C\C=C\c1ccco1`, for which the IC50 is 5.1 µM.

Take `CC(C)(C)C1C/C(=C/c2ccco2)C(=O)/C(=C/c2ccco2)C1` (stereo not drawn): the IC50 is 2.65 µM.

Turning to `O=C1NC(=O)N(c2ccccc2)C(=O)/C1=C\C=C\c1ccccc1`, the IC50 is 42 µM.

In the case of `CC1(C)C/C(=C(/C#N)C(N)=O)CCO1`, the IC50 is 80.7 µM.

As for `CCOC(=O)c1nn(-c2ccc(Cl)cc2Cl)c(=N)c(C#N)c1C`, the IC50 was 12.7 µM.
